Measured values as given in patent publication US12171806B2, “Therapeutic regimens and methods for lowering blood glucose and/or body weight using GLP-1R and GCGR balanced agonists” (priority 2021, dated 2024).

Experiments:
[1] = biological target: T1, glucagon (human, cloned into CHO cells) receptor (Homo sapiens, UniProt P47871); experiment: cAMP stimulation cellular assay (DiscoveRx LeadHunter), glucagon receptor; format: cell-based; conditions: 0.1% BSA
T1 construct: host or cells: CHO cells
T1 sequence (P47871 26-477): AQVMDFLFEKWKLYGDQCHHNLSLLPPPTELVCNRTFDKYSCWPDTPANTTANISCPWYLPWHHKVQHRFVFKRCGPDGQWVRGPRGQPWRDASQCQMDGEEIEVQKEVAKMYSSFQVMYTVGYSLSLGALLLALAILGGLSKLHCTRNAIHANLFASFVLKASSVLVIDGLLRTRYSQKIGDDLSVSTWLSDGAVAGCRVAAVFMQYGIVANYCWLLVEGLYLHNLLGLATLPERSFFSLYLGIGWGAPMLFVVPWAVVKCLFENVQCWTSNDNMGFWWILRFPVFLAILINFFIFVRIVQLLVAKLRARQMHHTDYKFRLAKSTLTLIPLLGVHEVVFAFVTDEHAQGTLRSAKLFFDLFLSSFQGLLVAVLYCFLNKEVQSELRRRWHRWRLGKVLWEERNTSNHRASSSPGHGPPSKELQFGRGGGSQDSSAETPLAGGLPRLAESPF

[2] = over 26 weeks; cited from earlier work
[3] = in 6 weeks; cited from earlier work

| SMILES | EC50 [1] | weight loss [2] | reduction in liver fat content / hepatic fat fraction [3] |
| --- | --- | --- | --- |
| CC[C@H](C)[C@H](NC(=O)[C@H](Cc1ccccc1)NC(=O)[C@H](CCC(=O)O)NC(=O)[C@@H]1CCCCNC(=O)CC[C@H](NC(=O)[C@H](CC(=O)O)NC(=O)[C@H](CC(C)C)NC(=O)[C@H](Cc2ccc(O)cc2)NC(=O)[C@H](CCCCN)NC(=O)[C@H](CO)NC(=O)[C@H](Cc2ccc(O)cc2)NC(=O)[C@H](CC(=O)O)NC(=O)[C@H](CO)NC(=O)[C@@H](NC(=O)[C@H](Cc2ccccc2)NC(=O)[C@@H](NC(=O)CNC(=O)[C@H](CCC(N)=O)NC(=O)C(C)(C)NC(=O)[C@@H](N)Cc2c[nH]cn2)[C@@H](C)O)[C@@H](C)O)C(=O)N[C@@H](CCC(N)=O)C(=O)N[C@@H](C)C(=O)N[C@@H](C)C(=O)N1)C(=O)N[C@@H](CCCCNC(=O)[C@H]1O[C@@H](OCCCCCCCCCCCCCCCCCC(=O)O)[C@H](O)[C@@H](O)[C@@H]1O)C(=O)N[C@@H](Cc1c[nH]c2ccccc12)C(=O)N[C@@H](CC(C)C)C(=O)N[C@@H](CC(C)C)C(=O)N[C@@H](CCC(N)=O)C(=O)N[C@H](C(N)=O)[C@@H](C)O [EU-A1872] | 2.62 nM |  |  |
| CCCCCCCCCCCCCCCC(=O)N[C@@H](CCC(=O)NCCCC[C@H](NC(=O)[C@H](CC(=O)O)NC(=O)[C@H](CO)NC(=O)[C@@H](NC(=O)[C@H](Cc1ccccc1)NC(=O)[C@@H](NC(=O)CNC(=O)[C@H](CCC(N)=O)NC(=O)[C@H](CO)NC(=O)[C@@H](N)Cc1c[nH]cn1)[C@@H](C)O)[C@@H](C)O)C(=O)N[C@@H](CO)C(=O)N[C@@H](CCC(=O)O)C(=O)N[C@@H](Cc1ccc(O)cc1)C(=O)N[C@@H](CC(C)C)C(=O)N[C@@H](CC(=O)O)C(=O)N[C@@H](CO)C(=O)N[C@@H](CCC(=O)O)C(=O)N[C@@H](CCCNC(=N)N)C(=O)N[C@@H](C)C(=O)N[C@@H](CCCNC(=N)N)C(=O)N[C@@H](CC(=O)O)C(=O)N[C@@H](Cc1ccccc1)C(=O)N[C@H](C(=O)N[C@@H](C)C(=O)N[C@@H](Cc1c[nH]c2ccccc12)C(=O)N[C@@H](CC(C)C)C(=O)N[C@@H](CCC(=O)O)C(=O)N[C@@H](C)C(=O)NCC(=O)NCC(=O)O)C(C)C)C(=O)O [cotadutide] |  | 5.4% | 39% |
